pKi: −log10 of the molar value. Blank lines part the entries; values can stand above or below the compound they belong to. Activity calls are given as the source filed them. The calls are words filed in the database; no cut-off is given here.
How the values were obtained:
[1] = molecular target: T1, Thymidylate synthase (Homo sapiens, UniProt P04818); assay: The apparent association constant (Ki) with dTMP synthetase enzyme from chick embryo in the absence of CH2-H4 folate was evaluated; Active; parameters: species or system Gallus gallus; details: target entry is the homologue from another species
Target sequence in this assay (P04818 whole entry): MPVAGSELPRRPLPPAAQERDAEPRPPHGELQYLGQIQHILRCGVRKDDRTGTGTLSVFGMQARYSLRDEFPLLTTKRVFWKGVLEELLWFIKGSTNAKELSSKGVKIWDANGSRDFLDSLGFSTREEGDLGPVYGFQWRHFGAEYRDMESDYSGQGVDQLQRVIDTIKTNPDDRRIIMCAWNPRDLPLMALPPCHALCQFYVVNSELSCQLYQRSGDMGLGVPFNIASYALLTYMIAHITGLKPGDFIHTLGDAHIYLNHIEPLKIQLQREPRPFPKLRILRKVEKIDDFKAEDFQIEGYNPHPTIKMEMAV

[2] = molecular target: T2, Thymidylate synthase (Lactobacillus casei, UniProt P00469); assay: The apparent association constant (Ki) with dTMP synthetase enzyme from chick embryo in the absence of CH2-H4 folate was evaluated; parameters: species or system Lacticaseibacillus casei
T2 sequence (P00469 whole entry): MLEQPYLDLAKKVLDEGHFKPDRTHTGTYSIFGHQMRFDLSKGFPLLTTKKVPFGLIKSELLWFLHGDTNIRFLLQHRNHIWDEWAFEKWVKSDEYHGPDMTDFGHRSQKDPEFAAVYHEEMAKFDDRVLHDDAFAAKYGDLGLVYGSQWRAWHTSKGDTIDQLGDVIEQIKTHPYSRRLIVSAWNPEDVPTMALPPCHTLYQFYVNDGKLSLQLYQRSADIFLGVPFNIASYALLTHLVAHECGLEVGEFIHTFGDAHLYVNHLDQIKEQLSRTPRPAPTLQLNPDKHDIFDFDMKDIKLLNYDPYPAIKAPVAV

[3] = molecular target: T1, Thymidylate synthase; assay: Compound (4.5 uM) was evaluated for the percent binding to the excess dTMP synthetase (3.9 uM and 7.8 uM sites) enzyme from chick embryo, […] of CH2-H4 folate. This complex was incubated 25 degrees Celsius for 2 hours.; details: Gallus gallus; target entry is the homologue from another species
Target sequence in this assay (P04818 2-313 limits assumed): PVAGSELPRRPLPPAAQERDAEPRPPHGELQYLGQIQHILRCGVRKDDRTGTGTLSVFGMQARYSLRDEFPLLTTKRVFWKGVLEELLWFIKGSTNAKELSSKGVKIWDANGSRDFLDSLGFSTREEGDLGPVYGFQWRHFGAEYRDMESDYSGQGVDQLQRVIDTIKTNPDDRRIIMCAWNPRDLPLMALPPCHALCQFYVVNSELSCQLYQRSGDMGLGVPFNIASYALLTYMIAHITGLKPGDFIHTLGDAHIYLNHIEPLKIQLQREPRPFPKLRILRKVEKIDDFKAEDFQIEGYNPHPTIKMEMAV

[4] = molecular target: T1, Thymidylate synthase; assay: Compound was evaluated for time-dependent loss of activity with use of 15 nM of dTMP synthetase enzyme from chick embryo in the presence of […] of CH2-H4 folate at about 20 seconds; assay type: functional; details: Gallus gallus; target entry is the homologue from another species
Target sequence in this assay (P04818 2-313 limits assumed): as above

[5] = molecular target: T1, Thymidylate synthase; assay: Compound was evaluated for the dissociation of the radiolabeled N4-HOdCMP by competitive binding to the excess dTMP synthetase; Active; details: Gallus gallus
Target sequence in this assay (P04818 2-313 limits assumed): as above

[6] = molecular target: T1, Thymidylate synthase; assay: The apparent association constant (Ki) with dTMP synthetase enzyme from chick embryo in the absence of CH2-H4 folate was evaluated using conventional spectrophotometric assay; Active; parameters: species or system Gallus gallus
Target sequence in this assay (P04818 whole entry): as the sequence (P04818 whole entry) above

Ki [1]: Active
SMILES: Cc1cn([C@H]2C[C@H](O)[C@@H](COP(=O)(O)O)O2)c(=O)[nH]c1=O [THYMIDINE MONOPHOSPHATE]

SMILES: O=c1nc(NO)ccn1[C@H]1C[C@H](O)[C@@H](COP(=O)(O)O)O1
pKi [2]: 5.10
Binding [3]: 90%
Loss of activity [4]: 50%
Dissociation [5]: Active

Ki [6]: Active
SMILES: O=c1ccn([C@H]2C[C@H](O)[C@@H](COP(=O)(O)O)O2)c(=O)[nH]1 [DEOXYURIDINE MONOPHOSPHATE]
